These are literature values, as cited in patent US20030139466A1, “Methods for pretreating a subject with extracorporeal photopheresis” (priority 2001, published 2003).

In one data set the test system is monocytes. The note with it: plasma containing 8-methoxypsoralen and exposure to ultraviolet-A light (photopheresis).
Data set [1] has as its system heart transplantation patients.

Turning to `COc1c2occc2cc2ccc(=O)oc12` [8-methoxypsoralen, 9-methoxy-7H-furo[3,2-g][1]-benzopyran-7-one], in the data set on monocytes, the cytokine release result is “releases tumor necrosis factor-alpha, IL-1, IL-6, and possibly IL-8”.
As for `Cn1cnc([N+](=O)[O-])c1Sc1ncnc2nc[nH]c12` [azathioprine], the One-year actuarial survival in data set [1] is 60%. Further, in data set [1] (initial postoperative period), the “patients who experience no rejection” value is less than 10%.
